The term melting point denotes the temperature of the solid-liquid transition.

Results on 13 compounds are retold here after patent US6809094B2, “Pharmaceutical composition for the treatment of CNS and other disorders” (Pfizer Inc, priority 2000, dated 2004).

Structures can show the parent of a compound that is named as a salt.

Regarding `c1ccc2cc3oc(N4CCN5CCC4CC5)nc3cc2c1`, the melting point was above 300 °C.

In turn, `c1ccc2c(c1)ccc1oc(N3CCN4CCC3CC4)nc12` yielded a melting point of 167.2 °C.

Consider `c1ccc(-c2ccc3nc(N4CCN5CCC4CC5)oc3c2)cc1`, for which the melting point amounted to 281.3 °C.

Compound `O=[N+]([O-])c1ccc2nc(N3CCN4CCC3CC4)oc2c1` gave a melting point of 296.4 °C.

With `Ic1ccc2oc(N3CCN4CCC3CC4)nc2c1`, the melting point is above 300 °C.

The compound `Brc1cnc2oc(N3CCN4CCC3CC4)nc2c1` returned a melting point above 300 °C.

The compound `c1cncc(-c2ccc3oc(N4CCN5CCC4CC5)nc3c2)c1` displayed a melting point above 300 °C.

The compound `c1ccc2[nH]c(N3CCN4CCC3CC4)nc2c1` registered a melting point above 300 °C.

`O=[N+]([O-])c1cccc2oc(N3CCN4CCC3CC4)nc12` registered a melting point of 232.1 °C.

In turn, `O=[N+]([O-])c1ccc2oc(N3CCN4CCC3CC4)nc2c1` showed a melting point of 240.2 °C.

Compound `O=[N+]([O-])c1cc2nc(N3CCN4CCC3CC4)oc2cc1Cl` came in with a melting point of 242.3 °C.

`c1ccc(-c2ccc3oc(N4CCN5CCC4CC5)nc3c2)cc1` showed a melting point above 300 °C.

In turn, `O=[N+]([O-])c1cc2oc(N3CCN4CCC3CC4)nc2cc1Cl` (as salt: hydrochloride) yielded a melting point above 300 °C.
